≈ marks a conversion by molar mass, not a printed value. Like-named read-outs stand apart in the source and are kept apart here. Bounds are passed on as bounds.

The values that follow come from patent publication US20060293307A1, “Oxazolidinone derivatives as antimicrobials” (priority 2002, published 2006).

For series [1], the system named is M. avium AIIMS. Briefly: MIC against MAC strains, agar dilution. It is filed as cell-based, Mycobacterium avium. The conditions noted are these: S. No. 04 Ma-4, M. avium AIIMS; Middle Brook 7H10 + OADC, 37° C., 14-21 days.
For series [2], the system named is M. avium intracellulare 18/98. Put plainly: MIC against MAC strains, agar dilution. It is filed as cell-based. The conditions noted are these: S. No. 16 Mai-9, M. avium intracellulare 18/98; Middle Brook 7H10 + OADC, 37° C., 14-21 days.
Series [3] has as its system M. tuberculosis SGPGI. Briefly: MIC against M. tuberculosis strains, agar dilution. It is filed as cell-based, Mycobacterium tuberculosis. The conditions noted are these: S. No. 05 Mt-, Middle Brook 7H10 + OADC, 37° C., 14-21 days. In general terms: Agar dilution tests growth on a series of plates holding different concentrations.
In series [4] the test system is M. tuberculosis ATCC. Briefly: MIC against M. tuberculosis strains, agar dilution. It is filed as cell-based, Mycobacterium tuberculosis. The conditions noted are these: S. No. 03 Mt-, Middle Brook 7H10 + OADC, 37° C., 14-21 days.
In series [5] the test system is M. intracellulare ATCC 35761. Briefly: MIC against MAC strains, agar dilution. It is filed as cell-based. The conditions noted are these: S. No. 07 Mi-2, M. intracellulare ATCC 35761; Middle Brook 7H10 + OADC, 37° C., 14-21 days.
Series [6] concerns M. avium intracellulare 926/98. Briefly: MIC against MAC strains, agar dilution. In kind it is cell-based. The conditions noted are these: S. No. 14 Mai-6, M. avium intracellulare 926/98; Middle Brook 7H10 + OADC, 37° C., 14-21 days.
Series [7] has as its system M. intracellulare ATCC 13950. Put plainly: MIC against MAC strains, agar dilution. In kind it is cell-based. The conditions noted are these: S. No. 06 Mi-1, M. intracellulare ATCC 13950; Middle Brook 7H10 + OADC, 37° C., 14-21 days.
In series [8] the test system is M. tuberculosis V-3093. Briefly: MIC against M. tuberculosis strains, agar dilution. In kind it is cell-based, Mycobacterium tuberculosis. The conditions noted are these: S. No. 14 Mt-, Middle Brook 7H10 + OADC, 37° C., 14-21 days.
Series [9] has as its system M. tuberculosis ATCC. Put plainly: MIC against M. tuberculosis strains, agar dilution. In kind it is cell-based, Mycobacterium tuberculosis. The conditions noted are these: S. No. 01.Mt-, Middle Brook 7H10 + OADC, 37° C., 14-21 days.
The subject of series [10] is M. tuberculosis M-66. Briefly: MIC against M. tuberculosis strains, agar dilution. It is filed as cell-based, Mycobacterium tuberculosis. The conditions noted are these: S. No. 08 Mt-, Middle Brook 7H10 + OADC, 37° C., 14-21 days.
Series [11] deals with M. tuberculosis H37Ra. Put plainly: MIC against M. tuberculosis strains, agar dilution. The conditions noted are these: S. No. 24 Mt-, Middle Brook 7H10 + OADC, 37° C., 14-21 days. It is filed as cell-based, Mycobacterium tuberculosis.
Series [12] concerns M. avium intracellulare 19/97. Briefly: MIC against MAC strains, agar dilution. The conditions noted are these: S. No. 17 Mai-10, M. avium intracellulare 19/97; Middle Brook 7H10 + OADC, 37° C., 14-21 days. In kind it is cell-based.
The subject of series [13] is M. tuberculosis H37Rv. Put plainly: MIC against M. tuberculosis strains, agar dilution. In kind it is cell-based, Mycobacterium tuberculosis. The conditions noted are these: S. No. 04 Mt-, Middle Brook 7H10 + OADC, 37° C., 14-21 days.
The subject of series [14] is M. tuberculosis PC. Briefly: MIC against M. tuberculosis strains, agar dilution. It is filed as cell-based, Mycobacterium tuberculosis. The conditions noted are these: S. No. 22 Mt-, Middle Brook 7H10 + OADC, 37° C., 14-21 days.
In series [15] the test system is M. intracellulare B-78/3. Put plainly: MIC against MAC strains, agar dilution. The conditions noted are these: S. No. 09 Mi-4, M. intracellulare B-78/3; Middle Brook 7H10 + OADC, 37° C., 14-21 days. It is filed as cell-based.
Series [16] concerns M. avium intracellulare 4. Briefly: MIC against MAC strains, agar dilution. In kind it is cell-based. The conditions noted are these: S. No. 11 Mai-2, M. avium intracellulare 4; Middle Brook 7H10 + OADC, 37° C., 14-21 days.
Series [17] relates to M. tuberculosis SGPGI. Put plainly: MIC against M. tuberculosis strains, agar dilution. In kind it is cell-based, Mycobacterium tuberculosis. The conditions noted are these: S. No. 07 Mt-, Middle Brook 7H10 + OADC, 37° C., 14-21 days.
The subject of series [18] is H. influenzae 35056. Briefly: MIC against Haemophilus strains. In kind it is cell-based.
Series [19] relates to Moraxella M6. Briefly: MIC, agar incorporation method. In kind it is cell-based.
Series [20] concerns H. influenzae 49766. Put plainly: MIC against Haemophilus strains. In kind it is cell-based.
The subject of series [21] is H. influenzae 23. Briefly: MIC against Haemophilus strains. It is filed as cell-based.

For the compound `CC[C@H]1OC(=O)[C@H](C)[C@@H](O[C@H]2C[C@@](C)(OC)[C@@H](O)[C@H](C)O2)[C@H](C)[C@@H](O[C@@H]2O[C@H](C)C[C@H](N(C)C)[C@H]2O)[C@](C)(OC)C[C@@H](C)C(=O)[C@H](C)[C@@H](O)[C@]1(C)O` [CLA], the MIC in series [1] is 1.0 µg/mL; in series [2], 32 µg/mL; in [3] it was 8.0 µg/mL; in series [4], 32 µg/mL; in [5], 0.5 µg/mL; in series [6], 1.0 µg/mL. Besides, the MIC in series [7] is 2.0 µg/mL; in [8], 16 µg/mL; in [9], 32 µg/mL; in [10], 16 µg/mL; in series [11], under 0.25 µg/mL; in [12], 32 µg/mL. For the same compound, the MIC was 32 µg/mL in series [13]; 8.0 µg/mL in [14]; 1.0 µg/mL in series [15]; under 0.25 µg/mL in [16]; 16 µg/mL in [17].

Turning to `CC(=O)NC[C@H]1CN(c2ccc(N3CCN(c4ccc(C=O)s4)CC3)c(F)c2)C(=O)O1` [Compound No. 2, (S)—N-[[3-[3-Fluoro-4-[4-(5-formyl-2-thienyl)-1-piperazinyl]phenyl]-2-oxo-5-oxazolidinyl]methyl]acetamide], the melting point was 180 °C (dec.). In addition, the MIC in series [18] (Haemophilus influenzae, s. No. 1, H. influenzae 35056, read-out: MIC) worked out at 16 µg/mL (≈ 35.8 µM). The MIC in [19] (S. No. 60, Moraxella M6, read-out: MIC) was 0.5 µg/mL (≈ 1.12 µM). In [20] (Haemophilus influenzae, s. No. 6, H. influenzae 49766, read-out: MIC), the MIC was over 16 µg/mL. The MIC in series [21] (Haemophilus influenzae, s. No. 5, H. influenzae 23, read-out: MIC) was over 16 µg/mL.

`CC(=O)NC[C@H]1CN(c2ccc(N3CCN(c4ccc([N+](=O)[O-])o4)CC3)c(F)c2)C(=O)O1` [Compound No. 4, (S)—N-[[3-[3-Fluoro-4-[4-(5-nitro-2-furyl)-1-piperazinyl]phenyl]-2-oxo-5-oxazolidinyl]methyl]acetamide] returned a melting point of 191 to 204 °C.

With `CC(=O)NC[C@H]1CN(c2ccc(N3CCN(c4cc(C(OC(C)=O)OC(C)=O)sc4[N+](=O)[O-])CC3)c(F)c2)C(=O)O1` [Compound No. 5, (S)—N-[[3-[3-Fluoro-4-[4-{3-thienyl(2-nitro)-5-acetyloxy}methylacetate]-1-piperazinyl]phenyl]-2-oxo-5-oxazolidinyl]acetamide], the MIC in series [18] (s. No. 1, H. influenzae 35056) is over 16 µg/mL; in series [19] (S. No. 60, Moraxella M6), 2 µg/mL (≈ 3.37 µM); in [20] (s. No. 6, H. influenzae 49766), over 16 µg/mL; in series [21] (s. No. 5, H. influenzae 23) it was over 16 µg/mL.

For `CC(=O)NC[C@H]1CN(c2ccc(N3CCN(c4ccc([N+](=O)[O-])s4)CC3)cc2)C(=O)O1` [Compound No. 6, (S)—N-[[3-[4-[N-1-(5-nitro-2-thienyl)piperazinyl]-phenyl]-2-oxo-5-oxazolidinyl]-methyl]-acetamide], the MIC came out at 16 µg/mL (≈ 35.9 µM) in series [18] (s. No. 1, H. influenzae 35056); 16 µg/mL (≈ 35.9 µM) in series [20] (s. No. 6, H. influenzae 49766); 16 µg/mL (≈ 35.9 µM) in [21] (s. No. 5, H. influenzae 23).

Turning to `C[C@H](Cl)C(=O)NCC1CN(c2ccc(N3CCN(c4ccc([N+](=O)[O-])s4)CC3)c(F)c2)C(=O)O1` (stereo partly drawn) [Compound No. 7, (S)—N-[[3-[3-Fluoro-4-[N-1-{4-(5-nitro-2-thienyl)piperazinyl}]-phenyl]-2-oxo-5-oxazolidinyl]-methyl]-2-chloro-propionamide], the MIC is over 16 µg/mL in series [18] (s. No. 1, H. influenzae 35056); over 8 µg/mL in [19] (S. No. 60, Moraxella M6); over 16 µg/mL in [20] (s. No. 6, H. influenzae 49766); over 16 µg/mL in series [21] (s. No. 5, H. influenzae 23).

As to `O=C(NC[C@H]1CN(c2ccc(N3CCN(c4ccc([N+](=O)[O-])s4)CC3)c(F)c2)C(=O)O1)C(F)F` [Compound No. 8, (S)—N-[[3-[3-Fluoro-4-[4-(5-nitro-2-thienyl)-1-piperazinyl]phenyl]-2-oxo-5-oxazolidinyl]methyl]difluoroacetamide], the MIC in series [18] (Haemophilus influenzae, 35056) is over 16 µg/mL; in series [19] (Moraxella, M6), 1 µg/mL (≈ 2 µM); in series [20] (Haemophilus influenzae, 49766), over 16 µg/mL; in series [21] (Haemophilus influenzae, 23) it was over 16 µg/mL.

In the case of `CCc1cc(C(N)=S)ccn1` [ETH], the MIC in [1] was 16 µg/mL; in series [2] it was 32 µg/mL; in series [3], 4.0 µg/mL; in series [4], 2.0 µg/mL; in [5], over 32 µg/mL; in series [6] it was 16 µg/mL. The MIC is 0.5 µg/mL in [7]; 2.0 µg/mL in [8]; 2.0 µg/mL in series [9]; over 32 µg/mL in series [10]; 2.0 µg/mL in [11]; 16 µg/mL in series [12]. Also, the MIC entry is “≦0.125 μg/ml” in series [13]; over 32 µg/mL in series [14]; 4.0 µg/mL in [15]; 4.0 µg/mL in [16]; over 32 µg/mL in series [17].

With `CO[C@H]1/C=C/O[C@@]2(C)Oc3c(C)c(O)c4c(O)c(c(/C=N/N5CCN(C)CC5)c(O)c4c3C2=O)NC(=O)/C(C)=C\C=C\[C@H](C)[C@H](O)[C@@H](C)[C@@H](O)[C@@H](C)[C@H](OC(C)=O)[C@@H]1C` [RIF], the MIC was 4.0 µg/mL in [1]; over 32 µg/mL in series [2]; 16 µg/mL in series [3]; 0.25 µg/mL in series [5]; 0.25 µg/mL in series [6]; 4.0 µg/mL in series [7]. For the same compound, the MIC was 0.25 µg/mL in series [9]; over 32 µg/mL in series [10]; over 32 µg/mL in series [12]; 0.25 µg/mL in series [13]; 2.0 µg/mL in series [14]; 0.25 µg/mL in series [15]. Further, the MIC is 0.25 µg/mL in series [16] and over 32 µg/mL in series [17].

Turning to `O=C(NC[C@H]1CN(c2ccc(N3CCN(c4ccc([N+](=O)[O-])s4)CC3)c(F)c2)C(=O)O1)C(Cl)Cl` [compound 9, (S)—N-[[3-[-3-Fluoro-4-[N-1-(5-nitro-2-thienyl)-piperazinyl]phenyl] -2-oxo-5-oxazolidinyl]methyl]dichloroacetamide], the MIC is over 16 µg/mL in series [18] (s. No. 1, H. influenzae 35056); 1 µg/mL (≈ 1.88 µM) in series [19] (S. No. 60, Moraxella M6); over 16 µg/mL in series [20] (s. No. 6, H. influenzae 49766); over 16 µg/mL in series [21] (s. No. 5, H. influenzae 23).

Take “(S)—N-[[3-[-3-Fluoro-4-[(5-nitro-2-thienyl)-3-methyl-1-piperazinyl]phenyl]-2-oxo-5-oxazolidinyl]methyl]acetamide [Compound No. 10]”: the MIC in [18] (s. No. 1, H. influenzae 35056) is over 16 µg/mL; in [19] (S. No. 60, Moraxella M6), 2 µg/mL; in series [20] (s. No. 6, H. influenzae 49766), over 16 µg/mL; in series [21] (s. No. 5, H. influenzae 23), over 16 µg/mL.

As a reminder, the melting point is the temperature of the solid-liquid transition.
